According to ChEMBL document CHEMBL1201862, “PubChem BioAssay data set” (2004):
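Assay format: 96-well plates, 48-hour exposure. GI50 is the concentration that inhibits growth by half.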 The source made the active and inactive calls. Rule as the data show it: active = GI50 up to about 1.1 µM and inactive = higher.

What was measured:
Assay in all cases: NCI-60 cell line screen, 48 h
CCRF-CEM = test system: CCRF-CEM
COLO 205 = test system: COLO 205
DLD-1 = test system: DLD-1
EKVX = test system: EKVX
HCC 2998 = test system: HCC 2998
HCT-116 = test system: HCT-116
HCT-15 = test system: HCT-15
HL-60 = test system: HL-60
IGROV-1 = test system: IGROV-1
KM12 = test system: KM12
LOX IMVI = test system: LOX IMVI
MOLT-4 = test system: MOLT-4
Malme-3M = test system: Malme-3M
NCI-H226 = test system: NCI-H226
NCI-H460 = test system: NCI-H460
NCI-H522 = test system: NCI-H522
NCI/ADR-RES = test system: NCI/ADR-RES
OVCAR-3 = test system: OVCAR-3
OVCAR-8 = test system: OVCAR-8
RPMI-8226 = test system: RPMI-8226
SF-268 = test system: SF-268
SF-295 = test system: SF-295
SF-539 = test system: SF-539
SK-MEL-28 = test system: SK-MEL-28
SK-MEL-2 = test system: SK-MEL-2
SK-MEL-5 = test system: SK-MEL-5
SNB-19 = test system: SNB-19
SNB-78 = test system: SNB-78
SW-620 = test system: SW-620
U-251 = test system: U-251
UACC-257 = test system: UACC-257
UACC-62 = test system: UACC-62
UO-31 = test system: UO-31
786-0 = test system: 786-0
A498 = test system: A498
A549 = test system: A549
ACHN = test system: ACHN
BT-549 = test system: BT-549
CAKI-1 = test system: CAKI-1
DU-145 = test system: DU-145
HOP-62 = test system: HOP-62
HOP-92 = test system: HOP-92
HT-29 = test system: HT-29
Hs-578T = test system: Hs-578T
K562 = test system: K562
M14 = test system: M14
MCF7 = test system: MCF7
MDA-MB-231 = test system: MDA-MB-231
MDA-MB-435 = test system: MDA-MB-435
MDA-N = test system: MDA-N
NCI-H23 = test system: NCI-H23
OVCAR-4 = test system: OVCAR-4
OVCAR-5 = test system: OVCAR-5
PC-3 = test system: PC-3
RXF 393 = test system: RXF 393
SK-OV-3 = test system: SK-OV-3
SN12C = test system: SN12C
SNB-75 = test system: SNB-75
SR = test system: SR
T47D = test system: T47D
TK-10 = test system: TK-10

## O=C(O)/C=C/c1c[nH]c(=O)[nH]c1=O
CCRF-CEM
  GI50: > 250 µM (inactive)
COLO 205
  GI50: > 250 µM (inactive)
DLD-1
  GI50: > 250 µM (inactive)
EKVX
  GI50: > 250 µM (inactive)
HCC 2998
  GI50: > 250 µM (inactive)
HCT-116
  GI50: > 250 µM (inactive)
HCT-15
  GI50: > 250 µM
HL-60
  GI50: 237 µM (inactive)
IGROV-1
  GI50: > 250 µM (inactive)
KM12
  GI50: > 250 µM (inactive)
LOX IMVI
  GI50: > 250 µM (inactive)
MOLT-4
  GI50: > 250 µM (inactive)
Malme-3M
  GI50: > 250 µM (inactive)
NCI-H226
  GI50: > 250 µM (inactive)
NCI-H460
  GI50: > 250 µM (inactive)
NCI-H522
  GI50: > 250 µM (inactive)
NCI/ADR-RES
  GI50: > 250 µM (inactive)
OVCAR-3
  GI50: > 250 µM (inactive)
OVCAR-8
  GI50: > 250 µM (inactive)
RPMI-8226
  GI50: > 250 µM (inactive)
SF-268
  GI50: > 250 µM (inactive)
SF-295
  GI50: 129 µM (inactive)
SF-539
  GI50: > 250 µM (inactive)
SK-MEL-28
  GI50: > 250 µM (inactive)
SK-MEL-2
  GI50: > 250 µM (inactive)
SK-MEL-5
  GI50: > 250 µM (inactive)
SNB-19
  GI50: > 250 µM (inactive)
SNB-78
  GI50: > 250 µM (inactive)
SW-620
  GI50: > 250 µM (inactive)
U-251
  GI50: > 250 µM (inactive)
UACC-257
  GI50: > 250 µM (inactive)
UACC-62
  GI50: > 250 µM (inactive)
UO-31
  GI50: > 250 µM (inactive)

## CC(C)(C)OC(=O)NC(CSSCC(NC(=O)OC(C)(C)C)C(=O)O)C(=O)O (configuration not stated)
786-0
  GI50: > 100 µM (inactive)
A498
  GI50: > 100 µM (inactive)
A549
  GI50: > 100 µM (inactive)
ACHN
  GI50: > 100 µM (inactive)
BT-549
  GI50: > 100 µM (inactive)
CAKI-1
  GI50: > 100 µM (inactive)
CCRF-CEM
  GI50: > 100 µM (inactive)
COLO 205
  GI50: > 100 µM (inactive)
DU-145
  GI50: > 100 µM (inactive)
EKVX
  GI50: > 100 µM (inactive)
HCC 2998
  GI50: > 100 µM (inactive)
HCT-116
  GI50: > 100 µM (inactive)
HCT-15
  GI50: > 100 µM
HL-60
  GI50: > 100 µM (inactive)
HOP-62
  GI50: > 100 µM (inactive)
HOP-92
  GI50: > 100 µM (inactive)
HT-29
  GI50: > 100 µM (inactive)
Hs-578T
  GI50: > 100 µM (inactive)
IGROV-1
  GI50: > 100 µM (inactive)
K562
  GI50: > 100 µM (inactive)
KM12
  GI50: > 100 µM (inactive)
LOX IMVI
  GI50: > 100 µM (inactive)
M14
  GI50: > 100 µM (inactive)
MCF7
  GI50: > 100 µM (inactive)
MDA-MB-231
  GI50: > 100 µM (inactive)
MDA-MB-435
  GI50: > 100 µM (inactive)
MDA-N
  GI50: > 100 µM (inactive)
MOLT-4
  GI50: > 100 µM (inactive)
Malme-3M
  GI50: > 100 µM (inactive)
NCI-H226
  GI50: > 100 µM (inactive)
NCI-H23
  GI50: > 100 µM (inactive)
NCI-H460
  GI50: > 100 µM (inactive)
NCI-H522
  GI50: > 100 µM (inactive)
NCI/ADR-RES
  GI50: > 100 µM (inactive)
OVCAR-3
  GI50: > 100 µM (inactive)
OVCAR-4
  GI50: > 100 µM (inactive)
OVCAR-5
  GI50: > 100 µM (inactive)
OVCAR-8
  GI50: > 100 µM (inactive)
PC-3
  GI50: > 100 µM (inactive)
RPMI-8226
  GI50: > 100 µM (inactive)
RXF 393
  GI50: > 100 µM (inactive)
SF-268
  GI50: > 100 µM (inactive)
SF-295
  GI50: > 100 µM (inactive)
SF-539
  GI50: > 100 µM (inactive)
SK-MEL-28
  GI50: > 100 µM (inactive)
SK-MEL-2
  GI50: > 100 µM (inactive)
SK-MEL-5
  GI50: > 100 µM (inactive)
SK-OV-3
  GI50: > 100 µM (inactive)
SN12C
  GI50: > 100 µM (inactive)
SNB-19
  GI50: > 100 µM (inactive)
SNB-75
  GI50: > 100 µM (inactive)
SR
  GI50: > 100 µM (inactive)
SW-620
  GI50: > 100 µM (inactive)
T47D
  GI50: > 100 µM (inactive)
TK-10
  GI50: > 100 µM (inactive)
U-251
  GI50: > 100 µM (inactive)
UACC-257
  GI50: > 100 µM (inactive)
UACC-62
  GI50: > 100 µM (inactive)
UO-31
  GI50: > 100 µM (inactive)
